Laboratory results from patent US20150253330A1, “PRE-SELECTION OF SUBJECTS FOR THERAPEUTIC TREATMENT WITH AN HSP90 INHIBITOR BASED ON HYPOXIC STATUS” (Synta Pharmaceuticals Corp., priority 2012, published 2015).
“Also recorded” adds a separate entry of the source.

What was measured:
[1] = tested on: advanced NSCLC; test: Phase 2 clinical trial in NSCLC by KRAS, EGFR and ALK mutation status; type: in vivo, human
Procedure: Patients with advanced NSCLC who failed prior treatments received 200 mg/m^2 of ganetespib as a 1-hr infusion once weekly for 3 of a 4-wk cycle in a Simon two-stage study design assessing primary endpoint of PFS rate at 16 wks. Initial cohorts were defined by mutation status: A) EGFR mutation, KRAS wild-type B) EGFR wild-type, KRAS mutation C) EGFR wild-type, KRAS wild-type (WT). If ≧2/14 patients in A, B or C were progression-free at 16 weeks, enrollment increased to 23 patients for that cohort. Tumor response was assessed every 8 weeks. Cohort D was added to include 35 additional EGFR wild-type and KRAS wild-type patients with adenocarcinoma histology. FISH analysis for ALK translocation, was performed for Cohorts C and D.

[2] = tested on: MDA-MB-231; test: 72 hr viability by CTG, breast cancer cell line; type: cell-based
Procedure: Breast cancer is a heterogeneous disease historically broken down into 4 subtypes. Various compounds were tested for their effects in cell viability assays using various breast cancer cell lines. Cellular viability was assessed using the CellTiter-Glo® Luminescent Cell Viability Assay (Promega, Madison, Wis., USA) according to the manufacturer's protocol. KRAS mutant NSCLC cell lines were seeded into 96-well plates based on optimal growth rates determined empirically for each line. Twenty-four hours after plating, cells were dosed with graded concentrations of ganetespib for 72 h. CellTiter-Glo® was added (50% v/v) to the cells, and the plates incubated for 10 min prior to luminescent detection in a SpectraMax® Plus 384 microplate reader (Molecular Devices, Sunnyvale, Calif., USA). Data were normalized to percent of control and IC50 values used to determine the sensitivity of each line. For the comparative analysis study with MEK and PI3K/mTOR inhibitors, A549, H2009, Calu-1, and H358 cells were treated with graded concentrations of ganetespib, AZD6244, or BEZ235 for 72 h and cell viability measured as above.
Breast cancer, cell lines, marker status, and IC50 in response to ganetespib at 72 hr (viability by CTG).
Basal breast cancer is a subtype believed to be more stem like and less differentiated than luminal breast cancer, and therefore more aggressive with limited treatment options. […]

[3] = tested on: SUM149 inflammatory breast cancer (IBC) cells; test: 24 hr viability assay, inflammatory breast cancer cells; type: cell-based; conditions: 24 hr after exposure, FIG. 2
Procedure: Ganetespib was assayed in inflammatory breast cancer (IBC), a rare but aggressive form of breast cancer distinct from the subtypes presented above.

[4] = tested on: HGC-27; test: 72 hr viability by Syto60, gastric cell line; type: cell-based; conditions: Homo sapiens, Syto60 (lower), read-out: ganetespib IC50
[5] = tested on: SNU-5; test: 72 hr viability by Syto60, gastric cell line; type: cell-based; conditions: Homo sapiens, Syto60 (lower), read-out: ganetespib IC50
[6] = tested on: Chk1 and Chk2 phosphorylation; test: Western blot of Chk1 and Chk2 phosphorylation after bleomycin in Detroit 562 cells; type: cell-based; conditions: Detroit 562, 100 nM ganetespib 24 hours prior to bleomycin (5 μM)
Procedure: Protein expression was measured at the indicated time points after bleomycin treatment.
Cell extracts from Detroit 562 head and neck cancer cells were treated with 100 nM of ganetespib 24 hours prior to receiving the DNA damaging agent bleomycin (5 μM). Protein expression was measured at the indicated time points after bleomycin treatment.

[7] = tested on: solid tumors; test: Phase 1 trial of ganetespib in combination with docetaxel in solid tumors; type: in vivo, human
Procedure: A trial to evaluate three dose-level combinations of docetaxel and ganetespib, administered on a three-week cycle, with the primary objective of determining an optimal dose for future clinical trials was performed. Docetaxel was administered as a one hour IV infusion on day 1 and ganetespib was administered as a one hour IV infusion on days 1 and 15. The dose level combinations evaluated were 150 mg/m^2 and 60 mg/m^2; 150 mg/m^2 and 75 mg/m^2; and 200 mg/m^2 and 75 mg/m^2 for ganetespib and docetaxel respectively. The standard of care dose level for docetaxel was 75 mg/m^2. A total of 19 patients received at least one dose of study treatment at the cut-off time. The median number of cycles of treatment was 4, with a range of 1 to 11 cycles of treatment. No prophylactic treatment for neutropenia was used. The combination of ganetespib at 150 mg/m^2 and docetaxel at 75 mg/m^2 was selected as the recommended dose.

[8] = tested on: Mia-PaCa2, HPAC and PANC-1 cells; test: Proliferation of pancreatic cancer cell lines, 24 hours (confirmed by XTT assay); type: cell-based; conditions: p<0.001, one way ANOVA
Procedure: Mia-PaCa2, PANC-1, HPAC and ASPC-1 cell lines (ATCC, Manassas, Va.) were cultured according to the ATCC manual. Medium was supplemented with 10% fetal bovine serum (Invitrogen Corporation, Carlsbad, Calif.), 50 units/ml penicillin, and 50 μg/ml streptomycin (Life Technologies, Inc., Frederick, Md.). Cells were incubated at 37° C. in a humidified 5% CO2 atmosphere.

[9] = tested on: HIF-1α and VEGF; test: Western blot of HIF-1α and VEGF in pancreatic cancer cell lines; type: cell-based; conditions: 50 nM, 24 h
Procedure: It's postulated that functional inhibition of Hsp90 by ganetespib can inhibit angiogenesis and growth in vitro and in vivo models of pancreatic cancer. PANC-1 and HPAC cell lines were treated with vehicle or G (50 nM) for 24 h and lysates were analyzed by Western blot. Egg CAM and matrigel plug assays were performed to quantify the effects of ganetespib on angiogenesis. Efficacy of ganetespib (100 mg/kg) was assessed in mice bearing HPAC and ASPC-1 xenograft.
Primary antibodies specific to Hsp90, HIF-1α, VEGF, Actin and HRP conjugated secondary antibodies (Santa Cruz Biotechnology, California and Cell Signaling Technology, USA) were used for Western blot. Ganetespib was provided by Synta Pharmaceuticals, Lexington, Mass. and Matrigel was purchased from BD Biosciences.
Cells were harvested at the end of treatment and lysed in the RIPA protein extraction buffer (Sigma-Aldrich, Saint Louis, Mo., USA) containing the protease inhibitor cocktail. Equal amounts of protein fractions of lysates were resolved over SDS-PAGE and transferred on to PVDF membrane. Membranes were incubated with primary antibodies followed by HRP-conjugated secondary antibodies. Bound antibodies were visualized using enhanced chemiluminescence. To confirm equal loading, membranes were verified and re-probed with an antibody specific for the housekeeping gene, anti-β-actin.

[10] = Cohort C: EGFR wild-type, KRAS wild-type

## CC(C)c1cc(-c2nnc(O)n2-c2ccc3c(ccn3C)c2)c(O)cc1O [ganetespib]
[1]; 200 mg/m^2 once weekly for 3 of a 4-wk cycle, generally grade 1-2
  Adverse events reported in ≧20% of patients: diarrhea, fatigue, nausea, anorexia, constipation, and dyspnea
[1]; ALK+ patients, 4/8
  Objective response rate (CR+PR): 50%
[1]; ALK+ patients, 7/8
  Disease control rate: 88%
[1]; [10]
  Patients with prolonged stable disease (≧16 weeks): seven
  Response in cohort C: durable partial response (PR)
[1]; eight ALK+ patients of cohorts C and D (six of eight)
  ALK+ patients with tumor shrinkage in target lesions: 75%
[1]; single agent 200 mg/m^2 once weekly, without severe liver, ocular, cardiovascular or renal toxicity
  Tolerability: well-tolerated
[2]; 72 hr viability assay, FIG. 1
  Anticancer activity in the basal line MDA-MB-231: highly potent, killing all the cells
[2]; Homo sapiens, MDA-MB-231, Basal B, 72 hr, viability by CTG
  IC50: 24 nM
[3]
  Anticancer activity against SUM149 cells: considerable anticancer activity
[4]
  IC50: 11 nM
[5]
  IC50: 31 nM
[6]
  Bleomycin-induced Chk1 and Chk2 phosphorylation: blocked
[7]; four patients, ganetespib in combination with docetaxel
  Febrile neutropenia: 22%
[7]; ganetespib in combination with docetaxel
  Neutropenia (most common adverse event): 67%
[7]; in combination with docetaxel at 75 mg/m^2
  Recommended dose of ganetespib: 150 mg/m^2
[7]; nine patients, ganetespib in combination with docetaxel
  Serious adverse events: 50%
[7]; one patient with cancer of the parotid gland, ganetespib with docetaxel
  Shrinkage of target tumor lesions: over 50%
[7]; patients
  Effect of ganetespib on docetaxel pharmacokinetics: no effect
  Pharmacokinetics of ganetespib alone versus prior to docetaxel: pharmacokinetic similarity
[8]
  Proliferation of Mia-PaCa2, HPAC and PANC-1 cells: decreases proliferation
[9]
  HIF-1α and VEGF protein levels: decreased HIF-1α a and VEGF expression; also recorded: decreased levels
